Where two headings read alike, the source gives them in different places.
Assays:
[1] = Plasma levels and bioavailability in mice; type: in vivo, male C57BL/6 mice; settings: male, C57BL/6, mouse, read-out: Bioavailability % F
Experimental: The plasma levels of a compound following a single intravenous, oral, intra-peritoneal, or sub-cutaneous administration in male C57BL/6 mice was determined. Plasma samples were collected and used to determine the plasma concentration of the compound and metabolites. In addition tissue samples, including whisker samples, and peripheral blood mononuclear cells (PBMC) cells were collected for telomerase activity analysis.
(§1) C57BL16 mice were divided into treatment groups. The mice were provided ad libitum SLAC-MO1 #W080208 (Shanghai Laboratories Animal Center, Shanghai, China) throughout the in-life portion of the study with the exception of the overnight fasting period prior to oral dosing. Water was available ad libitum.
(§2) Body weights were taken on the day of dose administration. Dose volume was determined based on individual body weight taken on day of dosing.
Blood samples (approximately 300 μL) were collected via cardiac puncture or via retro-orbital puncture after anesthesia into tubes containing K2-EDTA anticoagulant and 1 mg/ml NaF at the various time points after dosing. Blood was stored on ice and then plasma separated via centrifugation (8000 rpm×6 minutes). The plasma was stored at […] until LC-MS/MS analysis.

[2] = Plasma levels and bioavailability in rats; settings: male, Sprague Dawley, rat, in vivo, po, 10 mg/kg
Experimental: (§3) The plasma levels of a compound following a single intravenous and oral administration in carotid artery-cannulated male Sprague Dawley rats was determined. Plasma samples were collected and used to determine the plasma concentration of the compound and metabolites. In addition tissue samples, including whisker samples and PBMC cells were collected for telomerase activity analysis.
as §1, with “Carotid artery-cannulated male Sprague Dawley rats” for “C57BL16 mice”, “groups according to Table 6.” for “groups.”, “rats” for “mice”, “# YY080208” for “#W080208”
The compounds were dissolved in 2% EtOH/98% water to yield a final concentration of 2.5 mg/ml and 1 mg/ml for both intravenous and oral administration, respectively. The concentration of each compound was confirmed by HPLC analysis.
as §2
(§4) Blood samples (approximately 250 μL) were collected via cannulae into tubes containing K2-EDTA anticoagulant and 1 mg/ml NaF at the various time points. Blood was stored on ice and then plasma separated via centrifugation (8000 rpm×6 minutes). The plasma was stored at […] until LC-MS/MS analysis.
Percentage of bioavailability was calculated.

[3] = system: Human brain pericytes; assay: Tube formation of human brain pericytes on Matrigel; type: cell-based; settings: 0.5 μM in water, 24 hr then 6 hr on Matrigel, p<0.15
Experimental: Human brain pericytes (donor) at PD 10 were cultured for a total of 30 hr in 0.5 μM compound 7 dissolved in water. Telomerase activity and tube formation were analyzed.
Brain pericytes were first cultured for 24 hr in a T-75 flask in 0.5 μM compound 7, and then split onto a 24 well plate coated with Matrigel in order to promote tube formation (done in triplicate). 0.5 μM compound 7 was again included in the medium. After 6 hr the samples were fixed and branch points were counted using a microscope, 5 fields/well, with 3 wells/condition. Compound 7 treated pericytes had 1.9 times more branch points than the control (p<0.15).

[4] = molecular target: T1, telomerase (Homo sapiens, UniProt O14746); assay: Keratinocyte cell/TRAP assay (HEKneo-P cells); type: cell-based; set-up: host or cells: HEKneo-P (pooled neonatal human epidermal keratinocytes); settings: for EC50: telomerase activation; for Activity in in vitro HEK assay: 24 hr, 0.01 to 10 μM, vs vehicle control at peak of full dose curve
Excerpt: Harley et al., U.S. Pat. […] Harley et al., U.S. Pat. […] Non-treatment control (NT) was also included. […]

[5] = molecular target: T1, telomerase; set-up: host or cells: peripheral blood mononuclear cells; settings: reported by Franzese et al.; cited from earlier work
[6] = molecular target: T1, telomerase; assay: In vitro model of fibrosis: TGFβ and bleomycin treated SAECs, gel TRAP assay; type: cell-based; settings: bleomycin 10 ug/ml, TGFβ 10 ng/ml
Experimental: In addition a portion of the cells were treated with bleomycin (10 ug/ml) and TGFβ (10 ng/ml). Forty-eight hours after the second treatment, cells were washed and lysed with M-Per lysis buffer. A gel TRAP assay was run to evaluate the telomerase activity in the cells.

[7] = set-up: species or system male Beagle dogs; settings: male, Beagle, dog, in vivo, po, 10 mg/kg
Experimental: as §3, with “level” for “levels”, “in” for “in carotid artery-cannulated”, “Beagle dogs” for “Sprague Dawley rats”
as §1, with “Male Beagle dogs” for “C57BL16 mice”, “groups according to Table 5.” for “groups.”, “dogs” for “mice”, “#W080701” for “#W080208”
The compounds were dissolved in 2% EtOH/98% water […] to yield a final concentration of 2.5 mg/ml and 1 mg/ml for both intravenous and oral administration, respectively. The concentration of each compound was confirmed by HPLC analysis.
Doses were administered intravenously via the left femoral vein and then by oral dosing one week later. Body weights were taken on the day of dose administration. Dose volume was determined based on individual body weight taken on day of dosing.
as §4, with “right femoral vein” for “cannulae”, “appropriate” for “the various”

T1 sequence (O14746 whole entry): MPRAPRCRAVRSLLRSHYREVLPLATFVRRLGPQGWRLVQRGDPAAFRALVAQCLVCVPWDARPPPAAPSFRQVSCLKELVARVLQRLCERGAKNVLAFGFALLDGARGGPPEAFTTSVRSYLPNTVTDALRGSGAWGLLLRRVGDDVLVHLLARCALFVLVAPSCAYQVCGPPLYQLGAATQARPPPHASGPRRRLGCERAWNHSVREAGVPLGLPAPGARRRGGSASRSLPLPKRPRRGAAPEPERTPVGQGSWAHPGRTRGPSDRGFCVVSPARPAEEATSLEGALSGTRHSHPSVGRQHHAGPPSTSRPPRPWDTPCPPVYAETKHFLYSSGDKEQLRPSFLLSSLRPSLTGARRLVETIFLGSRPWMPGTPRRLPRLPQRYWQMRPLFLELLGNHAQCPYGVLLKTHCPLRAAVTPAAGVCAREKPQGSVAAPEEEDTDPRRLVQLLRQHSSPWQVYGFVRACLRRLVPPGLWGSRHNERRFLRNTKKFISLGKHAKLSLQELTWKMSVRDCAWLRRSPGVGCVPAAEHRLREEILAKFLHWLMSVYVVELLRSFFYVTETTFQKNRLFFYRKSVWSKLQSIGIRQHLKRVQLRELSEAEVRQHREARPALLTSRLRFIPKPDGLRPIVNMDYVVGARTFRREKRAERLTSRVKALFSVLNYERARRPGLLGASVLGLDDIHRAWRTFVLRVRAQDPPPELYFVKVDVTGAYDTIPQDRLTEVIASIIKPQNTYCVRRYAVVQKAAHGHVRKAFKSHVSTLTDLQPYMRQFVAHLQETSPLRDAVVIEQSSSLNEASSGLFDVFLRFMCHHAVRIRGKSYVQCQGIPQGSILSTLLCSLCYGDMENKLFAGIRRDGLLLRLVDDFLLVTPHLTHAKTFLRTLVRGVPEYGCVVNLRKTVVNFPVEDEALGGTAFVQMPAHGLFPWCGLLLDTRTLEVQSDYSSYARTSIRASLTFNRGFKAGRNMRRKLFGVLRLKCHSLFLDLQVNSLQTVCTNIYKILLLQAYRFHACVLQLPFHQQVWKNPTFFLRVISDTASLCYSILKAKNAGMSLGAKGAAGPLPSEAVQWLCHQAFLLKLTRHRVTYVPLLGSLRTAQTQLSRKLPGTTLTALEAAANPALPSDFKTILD

Molecule | Bioavailability % F [2] [%] | EC50 [4] [nM] | Max fold increase of activity [4] [fold] | Activity in in vitro HEK assay [4] | also measured
CC(C)C(N)C(=O)OC1CC2C3(C)CC(O)C(C4(C)CCC(C(C)(C)O)O4)C3(C)CCC23CC32CCC(OC(=O)C(N)C(C)C)C(C)(C)C12 (stereo not drawn) [Compound 7, 2-(L)-Amino-3-methyl-butyric acid 6α-(2-amino-3-methyl-butyryloxy)-16β-dihydroxy-17-[5-(1-hydroxy-1-methyl-ethyl)-2-methyl-tetrahydro-furan-2-yl]-4,4,13,14-tetramethyl-tetradecahydro-cyclopropa[9,10]cyclopenta[a]phenanthren-3β-yl ester] | 44 | 41 to 50 |  |  | bioavailability ([1]; PO, 10 mg/kg, 2% EtOH/98% water): 25%; bioavailability ([1]; SC, 10 mg/kg, 2% EtOH/98% water): 61%; branch points relative to the control [3]: 1.9 times
CC(C)(C)NC(=O)[C@@H]1C[C@@H]2CCCC[C@@H]2CN1C[C@@H](O)[C@H](Cc1ccccc1)NC(=O)[C@H](CC(N)=O)NC(=O)c1ccc2ccccc2n1 [Saquinavir] |  |  |  |  | telomerase activity in peripheral blood mononuclear cells [5]: increased telomerase activity
CC(C)C(N)C(=O)OC1CC2C3(C)CC(O)C(C4(C)CCC(C(C)(C)O)O4)C3(C)CCC23CC32CCC(O)C(C)(C)C12 (centres unmarked) [Compound 12] | 27 | 28 to 32 |  |  | bioavailability ([1]; IP, 5 mg/kg, 2% EtOH/98% water): 42%; bioavailability ([1]; PO, 5 mg/kg, 2% EtOH/98% water): 8%
CC(C)[C@H](N)C(=O)O[C@H]1CC2C3(CC[C@]4(C)[C@@H]([C@@]5(C)CC[C@@H](C(C)(C)O)O5)[C@@H](O)C[C@@]24C)C[C@@]32CCC(=O)C(C)(C)[C@H]12.Cl (stereo partly drawn) [Compound 30, 2-(L)-Amino-3-methyl butyric acid 16β-hydroxy-17-[5-(1-hydroxy-1-methyl-ethyl)-2-methyl-tetrahydro-furan-2-yl]-4,4,13,14-tetramethyl-3-oxo-tetradecahydro-cyclopropa[9,10]cyclopenta[a]phenanthren-6α-yl ester] |  |  | 3.5 | + (telomerase activation is 2 fold or more in comparison with vehicle control at the peak of the full dose curve.) | 
bleomycin |  |  |  |  | effect on SAEC telomerase activity [6]: suppressed SAEC telomerase activity
CCC(C)[C@H](N)C(=O)OC1CC2C3(C)CC(O)C(C4(C)CCC(C(C)(C)O)O4)C3(C)CCC23CC32CCC(OC(=O)[C@@H](N)C(C)CC)C(C)(C)C12 (some centres unmarked) [Compound 32] |  |  | 3 | + (telomerase activation is 2 fold or more in comparison with vehicle control at the peak of the full dose curve.) | concentration at Max fold increase of activity [4]: 0.37 to 1.1 µM
CCC(C)C(N)C(=O)OC1CCC23CC24CCC2(C)C(C5(C)CCC(C(C)(C)O)O5)C(O)CC2(C)C4CC(O)C3C1(C)C (centres unmarked) [Compound 14] | 93 | 9 to 21 |  |  | bioavailability ([1]; PO, 10 mg/kg, 5% PEG400/5% solutol HS-15/90% water): 42%; Bioavailability % F [7]: 55%
CC(C)[C@H](N)C(=O)OC1CC2(C)C3CC(O)C4C(C)(C)C(O)CCC45CC35CCC2(C)C1C1(C)CCC(C(C)(C)O)O1 (stereo partly drawn) [Compound 36, 2-(L)-Amino-3-methyl-butyric acid 3β,6α-dihydroxy-16β-hydroxy-17-[5-(1-hydroxy-1-methyl-ethyl)-2-methyl-tetrahydro-furan-2-yl]-4,4,13,14-tetramethyl-tetradecahydro-cyclopropa[9,10]cyclopenta[a]phenanthren-16β-yl ester] |  |  | 3.0 | + (telomerase activation is 2 fold or more in comparison with vehicle control at the peak of the full dose curve.) | concentration at Max fold increase of activity [4]: 0.01 to 0.12 µM
